Experimental data reported in patent US20160340659A1, “ACTIN BINDING PEPTIDES AND COMPOSITIONS COMPRISING SAME FOR INHIBITING ANGIOGENESIS AND TREATING MEDICAL CONDITIONS ASSOCIATED WITH SAME” (YISSUM RESEARCH AND DEVELOPMENT COMPANY OF THE HEBREW …, priority 2014, published 2016).
Marks after values point to notes of the source that are not given here. Each block holds one sequence with its values, some of them ahead of it. Where no end group is shown, it is not given here.

Legend:
[1] = molecular target: T1, G-Actin from rabbit muscle (Oryctolagus cuniculus, UniProt P68135); assay: ELISA actin binding assay (solid-phase, immobilized actin); conditions: immobilized G-actin 500 ng/well
T1 construct: G-Actin from rabbit muscle; purchased Sigma-Aldrich, St Louis, Mo; host or cells: rabbit muscle (tissue-derived)
Protocol: Peptides corresponding to a variety of amino acid sequences in the region of human RNASET2 comprising helix 5 and helix 6 were synthesized and assayed for actin binding in an ELISA actin binding assay.
Solid-phase ELISA for RNASET2 peptide binding to immobilized actin was performed as modified from Mejean 1987 (Biochem. J. 244: 571-577) and Mejean 1992 (Eur. J Biochem. 209: 555-562). All steps were conducted at 37° C. Immuno-96 Microwell™ solid plates (Thermo Fisher Scientific, MA) coated with 500 ng/well of G-Actin from rabbit muscle (Sigma-Aldrich, St Louis, Mo.) in 100 ul of 0.05 M carbonate buffer, pH 9.5 (Sigma-Aldrich, Mo), incubated for 1 h and washed with 250 ul/well Tris Buffered Saline (TBS) (Sigma-Aldrich). The wells were blocked with 3% bovine serum albumin (BSA, Sigma-Aldrich) in 200 ul/well TBS for another 1 hour and washed with 250 ul/well TBS. The candidate peptides are then added at various concentrations (for example, serial dilutions giving 500, 250 or 125 ng/well) in 100 ul/well Tris Buffered Saline (TBS), incubated for 1 hour and washed 3 times with 250 ul/well TBS containing 0.05% Tween®20 (TBST, Sigma-Aldrich). Anti-T2 RNase (rabbit anti-rhtrRNASET2, Anilab, Israel, whole serum or antiserum) was then added, incubated for 1 hour and the plates washed 3 times with 250 ul/well TBST. Labeled second antibody [peroxidase-conjugated affinity pure goat-anti rabbit IgG (Jackson, Pa.)] was added at a dilution of 1:10:000 in 100 ul/well TBS, incubated for 1 hour and the plates washed twice with 250 ul/well TBST. After an additional wash with 250 ul/well TBS, 1-Step Ultra TMB-ELISA (TMB-3,3′,5,5′ Tetramethylbenzidine) (Thermo-Scientific) was added (100 ul/well) and after 15-25 min of incubation, the reaction was read at A650 using Infinite F50-TECAN ELISA READER (TECAN, Austria). Each assay was performed in triplicates.

[2] = test system: Super metastatic A375SM cells; assay: A375SM xenograft tumor model in athymic nude mice; assay type: in vivo, mouse; conditions: for Tumor Weight: excised tumors at end
Protocol: Female Hds-athymic nude mice (Harlan, Rehovot, Israel) were housed in laminar flow cabinets under specific pathogen-free conditions. Experiments were performed on mice at 7-8 weeks of age. The Animals were maintained in facilities approved by the Ethics Committee for Animal Experimentation, The Israeli Ministry of Health.
Subcutaneous tumors were produced by injecting 2.5×10^5 Super metastatic A375SM cells (single-cell suspensions, >95% viability by a trypan blue exclusion test) in 0.2 ml of Hanks' buffered salt solution into the left flank of each mouse. Tumor growth was recorded three times weekly with a caliper and calculated as a×b^2/2 cm^3 (a, long diameter; b, short diameter). Treatments commenced when tumors arrived to about 100 mm^3 volumes, as follows (iv=intravenous; it=intra-tumor, direct injection, q3×6=three times per week for six weeks, […]):
Each group comprised 10 mice. At the end of experiment, tumors were excised, weighed, and prepared for histopathological examination.
Sections from the excised tumors were examined for athological changes, using Hematoxylin-Eosin staining (nuclei stain blue) and FragEL™ TdT DNA Fragmentation Detection stain (Calbiochem, EMD Millipore, MA) for visualizing apoptotic nuclei.

[3] = 2.5 mg/kg intratumoral, three times per week
[4] = 2.5 mg/kg iv, three times per week
[5] = 5 mg/kg iv, three times per week

Sequence: ALNSQKKYFGRSLELYRELDLNSVLLKLGIKPSINYYQVADFKDALARVYGVIPKIQ [SEQ ID NO: 60]
actin binding on ELISA [1]: strong

actin binding on ELISA [1]: strong actin binding
Sequence: KKYFGRSLELYRELDLNSVLLKLGIK [SEQ ID NO: 57, 26-amino acid peptide representing amino acids 108-133 of RNASET2]
tumor volume (tumor growth) ([2]; 2.5 mg/kg intra-tumor, three times per week, vs PBS control): Increasing inhibition of tumor growth | tumor apoptosis (FragEL stain of tumor sections) [2, 3]: abundant apoptosis | tumor vascular structures (H&E sections) [2, 3]: tumor cells can be seen accumulating towards the blood vessels | tumor apoptosis (FragEL stain of tumor sections) ([2]; 2.5 mg/kg iv, daily): heightened apoptosis | tumor vascular structures (H&E sections) ([2]; 2.5 mg/kg iv, daily): significant disruption of tumor histology and vascular structures | tumor volume (tumor development) ([2]; 2.5 mg/kg iv, daily for six weeks, vs PBS control): increased the rate of tumor development | tumor apoptosis (FragEL stain of tumor sections) [2, 4]: abundant apoptotic cells | tumor vascular structures (H&E sections) [2, 4]: visible disruption of the endothelial structure | tumor volume (tumor development) ([2]; 2.5 mg/kg iv, three times per week for six weeks, vs PBS control): trend of increasing inhibition of tumor development | Tumor Weight ([2]; 2.5 mg/kg q7x6 iv): 3469 ± 648^a | tumor apoptosis (FragEL stain of tumor sections) [2, 5]: an increase in apoptotic rate | tumor vascular structures (H&E sections) [2, 5]: only partial disruption of the endothelial cell structures | tumor growth ([2]; 5 mg/kg iv, three times per week, vs PBS control): no visible significant effect on tumor growth | Tumor Weight ([2]; 5 mg/kg q3x6 iv): 1798 ± 385^b | tumor apoptosis (FragEL stain of tumor sections) ([2]; 7.5 mg/kg iv, three times per week): an increase in apoptotic rate | tumor vascular structures (H&E sections) ([2]; 7.5 mg/kg iv, three times per week, relative to PBS controls): A small, if any effect | tumor growth ([2]; 7.5 mg/kg iv, three times per week, vs PBS control): no visible significant effect on tumor growth | Tumor Weight ([2]; 7.5 mg/kg q3x6 iv): 1471 ± 418^b
